Data published in BindingDB's records for doi:10.1021/acs.jmedchem.5b01801 (University of Liverpool, 2016).

Test: Inhibition of Cyclophilin D (unknown origin) activity preincubated for 15 mins followed Suc-AAPF-pNA substrate addition by chymotrypsin coupled based spectrophotometry assay

SMILES | Ki
Nc1ccc(CNC(=O)NCC(=O)N2CCCC2)cc1 | 4.9 µM
CCOC(=O)CNC(=O)NCc1ccc(NC(C)=O)cc1 | 2.6 µM
